In test [1] the test system is PLC/PRF/5 KSR2 OE (PLC cells overexpressing KSR2). The experiment in a line: Cell IC50 assay (CCK8 cell viability), PLC/PRF/5 KSR2 OE. In kind it is cell-based. The following applies: Homo sapiens, read-out: IC50 value of cell viability, PLC/PRF/5 KSR2 OE (PLC cells overexpressing KSR2). The procedure: (§1) (1) Cell Preparation: Hepatoma cells (PLC/PRF/5, sourced from the Chinese Academy of Sciences; MHCC97H, sourced from this research institute) in good growth condition are prepared. The cells are trypsinized, diluted, and seeded into 96-well cell culture plates. 1,000-3,000 cells are added per well. The plates are then placed in a cell culture incubator at 37° C. with 5% CO2. Drugs are added after the cells have adhered for 24 h.
(§2) (2) Drug Addition: The drugs are subjected to gradient dilution, typically setting 9 concentrations. Control groups containing no drug medium and medium containing only the drug solvent are also set up. The diluted drugs are added to the cell culture plates seeded the previous day. The plates are incubated for 72 h.
(§3) (3) CCK8 Assay for Cell Viability: CCK8 is mixed with culture medium at a 1:10 ratio. 100 μL of this mixture is added to each well of the cell culture plate. After incubating for 2-4 h, the OD values are measured using a microplate reader.
(§4) (4) Data Analysis: Based on the corresponding OD values, the data are compiled, IC50 curves are plotted, and the IC50 values are obtained.
(§5) (5) IC50 Verification: The theoretical IC50 value is identified from the IC50 curve. Drug concentrations at ½ times, 1 time, and 2 times this theoretical value are used for verification.

Test [2] relates to MHCC97H KSR2 OE (97H cells overexpressing KSR2). Kind of test: Cell IC50 assay (CCK8 cell viability), MHCC97H KSR2 OE. Conditions: Homo sapiens. The test is classed as cell-based. The procedure: as §1, §2, §3, §4, §5
Setting [3] is: PLC-PRF-5, hepatoma cells, 72 h incubation, CCK8.
[4] abbreviates: hepatoma cells, 72 h incubation, CCK8, read-out: IC50 value of cell viability, MHCC97H KSR2 OE (97H cells overexpressing KSR2).
Where [5] appears, read: read-out: IC50 value of cell viability, MHCC97H KSR2 OE (97H cells overexpressing KSR2).

Like-named read-outs stand apart in the source and are kept apart here.

For the compound `Cc1ccc2c(c1)OCc1c-2nn(C)c1C(=O)NCCCN1CCC(N2CCN(C)CC2)CC1` [Compound 116], the IC50 in test [1] (setting [3]) stood at 18 µM; in test [2] (setting [4]) it was 7 µM.
The corresponding values for `CCN1CCN(C2CCN(CCCNC(=O)c3nn(C)c4c3COc3cc(Cl)ccc3-4)CC2)CC1` [Compound 84] are 2 µM and 1 µM.
The corresponding values for `CN(C)C1CCN(CCCNC(=O)c2nn(C)c3c2CSc2ccccc2-3)C1` (centres unmarked) [Compound 52] are 59 µM and 50 µM.
The corresponding values for `COc1ccc(N2CCN(CCCNC(=O)c3nn(C)c4c3CSc3ccccc3-4)CC2)cc1` [Compound 27] are 31 µM and 13 µM.
Take `CN1CCN(C2CCN(CCCNC(=O)c3nn(C)c4c3COc3cc(C5CC5)ccc3-4)CC2)CC1` [Compound 93]: the IC50 in test [1] (setting [3]) was 3 µM; in test [2] (setting [4]), 4 µM.
The corresponding values for `CN1CCN(C2CCN(CCCNC(=O)c3nn(C)c4c3COc3cc(Br)ccc3-4)CC2)CC1` [Compound 92] are 4 µM and 4 µM.
In the case of `CN1CCN(C2CCN(CCCNC(=O)c3n[nH]c4c3COc3cc(C(F)(F)F)c(C#N)cc3-4)CC2)CC1` [Compound 130], the values for the IC50 in test [1] (setting [3]) and in test [2] (setting [4]) were 10 µM and 4 µM, respectively.
The corresponding values for `CN1CC2CCC(C1)N2C1CCN(CCCNC(=O)c2nn(C)c3c2CSc2ccccc2-3)CC1` [Compound 74] are 10 µM and 8 µM.
The corresponding values for `CN1CCN(C2CN(CCCNC(=O)c3nn(C)c4c3COc3cc(Cl)c(C#N)cc3-4)C2)CC1` [Compound 119] are 5 µM and 7 µM.
The corresponding values for `CN1CCN(C2CCN(CC(F)(F)CNC(=O)c3nn(C)c4c3CSc3ccccc3-4)CC2)CC1` [Compound 33] are 19 µM and 18 µM.
Turning to `Cn1nc(C(=O)NCCCN2CCC(N3CCC(O)C3)CC2)c2c1-c1ccccc1SC2` (centres unmarked) [Compound 46], the figures for the IC50 in test [1] (setting [3]) and in test [2] (setting [4]) were 2 µM and 6 µM, respectively.
Take `CN(C)C1CN(CCCNC(=O)c2nn(C)c3c2CSc2ccccc2-3)C1` [Compound 54]: the IC50 in test [1] (setting [3]) is 6 µM; in test [2] (setting [4]) it was 5 µM.
The corresponding values for `Cc1ccc2c(c1)OCc1c-2nn(C)c1C(=O)NCCCN1CC(N2CCN(C)CC2)C1` [Compound 115] are 43 µM and 18 µM.
The corresponding values for `CN1CCN(C2CN(C3CC(CNC(=O)c4nn(C)c5c4CSc4ccccc4-5)C3)C2)CC1` (centres unmarked) [Compound 77] are 21 µM and 27 µM.
The corresponding values for `CCN1CCN(C2CN(C3CC(CNC(=O)c4nn(C)c5c4COc4cc(Cl)ccc4-5)C3)C2)CC1` (centres unmarked) [Compound 114] are 4 µM and 2 µM.
In the case of `Cn1nc(C(=O)NCC(O)CN2CCN(c3ccccc3)CC2)c2c1-c1ccccc1SC2` (centres unmarked) [Compound 18], the IC50 in test [1] (setting [3]) was 42 µM; in test [2] (setting [4]) it was 40 µM.
The corresponding values for `CCN1CCN(C2CN(C3CC(CNC(=O)c4nn(C)c5c4CSc4cc(Cl)ccc4-5)C3)C2)CC1` (centres unmarked) [Compound 111] are 6 µM and 9 µM.
Consider `Cn1nc(C(=O)NCC(F)(F)CN2CCC(N3CCOCC3)CC2)c2c1-c1ccccc1SC2` [Compound 35], for which the IC50 in test [1] (setting [3]) was 28 µM; in test [2] (setting [4]) it was 22 µM.
The corresponding values for `CCN1CCN(C2CN(CCCNC(=O)c3nn(C)c4c3COc3cc(Cl)ccc3-4)C2)CC1` [Compound 87] are 6 µM and 3 µM.
Take `Cc1ccc2c(c1)OCc1c(C(=O)NCCCN3CC(N4CCN(C)CC4)C3)nn(C)c1-2` [Compound 121]: the IC50 in test [1] (setting [3]) was 18 µM; in test [2] (setting [4]) it was 20 µM.
Regarding `Cn1nc(C(=O)NCCCN2CCN(CC3CC3)CC2)c2c1-c1ccccc1SC2` [Compound 5], the IC50 in test [1] (PLC-PRF-5, 72 h) amounted to 25 µM; in test [2] (setting [5]), 44 µM.
With `CN1CCN(C2CCN(CCCNC(=O)c3nn(C)c4c3COc3ccc(Cl)cc3-4)CC2)CC1` [Compound 69], the figures for the IC50 in test [1] (setting [3]) and in test [2] (setting [4]) were 0.6 µM and 5 µM, respectively.
Regarding `CCN1CCN(C2CCN(C3CC(CNC(=O)c4nn(C)c5c4CSc4ccccc4-5)C3)CC2)CC1` (centres unmarked) [Compound 61], the IC50 in test [1] (setting [3]) was found to be 0.2 µM; in test [2] (setting [4]) it was 1 µM.
The corresponding values for `CCN1CCN(C2CN(C3CC(CNC(=O)c4nn(C)c5c4COc4cc(OC(F)(F)F)ccc4-5)C3)C2)CC1` (centres unmarked) [Compound 112] are 3 µM and 4 µM.
The corresponding values for `CC(=O)N1CCN(C2CCN(CCCNC(=O)c3nn(C)c4c3CSc3ccccc3-4)CC2)CC1` [Compound 59] are 11 µM and 31 µM.
The corresponding values for `Cn1nc(C(=O)NCCCN2CCC(N3CCN(S(C)(=O)=O)CC3)CC2)c2c1-c1ccccc1SC2` [Compound 56] are 50 µM and 62 µM.
Consider `Cn1nc(C(=O)NCCCN2CCC(NC(=O)C3CC3)CC2)c2c1-c1ccccc1SC2` [Compound 57], for which the IC50 in test [1] (setting [3]) is 2 µM; in test [2] (setting [4]) it was 21 µM.
The corresponding values for `CN1CCN(C2CCN(CCCNC(=O)c3nn(C)c4c3COc3ccc(C#N)cc3-4)CC2)CC1` [Compound 82] are 8 µM and 8 µM.
In the case of `Cn1nc(C(=O)NCCCN2CCN(C3CCCC3)CC2)c2c1-c1ccccc1SC2` [Compound 3], the figures for the IC50 in test [1] (setting [3]) and in test [2] (setting [4]) were 32 µM and 56 µM, respectively.
The corresponding values for `CN1CCN(C2CCN(CCCNC(=O)c3nn(C)c4c3COc3cc(C#N)ccc3-4)CC2)CC1` [Compound 94] are 7 µM and 10 µM.
For the compound `CN1CCN(C2CCN(CCCNC(=O)c3nn(C)c4c3COc3c(Cl)cccc3-4)CC2)CC1` [Compound 72], the IC50 in test [1] (setting [3]) and in test [2] (setting [4]) was 2 µM in each case.
`CN1CCN(C2CCN(CCCNC(=O)c3n[nH]c4c3COc3cc(Cl)c(C#N)cc3-4)CC2)CC1` [Compound 128]: the IC50 worked out at 4 µM in test [1] (setting [3]) and 6 µM in test [2] (setting [4]).
The corresponding values for `Cn1nc(C(=O)NCCCN2CCN(c3ccc(Cl)cc3)CC2)c2c1-c1ccccc1SC2` [Compound 25] are 20 µM and 37 µM.
The corresponding values for `CC(C)N1CCN(C2CCN(CCCNC(=O)c3nn(C)c4c3CSc3ccccc3-4)CC2)CC1` [Compound 60] are 2 µM and 4 µM.
The corresponding values for `Cn1nc(C(=O)NCCCN2CCC(N3CCN(CCO)CC3)CC2)c2c1-c1ccccc1SC2` [Compound 67] are 20 µM and 24 µM.
On to `CN1CCN(C2CCN(CCCNC(=O)c3nn(C)c4c3COc3ccccc3-4)CC2)CC1` [Compound 50], for which the IC50 was determined as 7 µM in test [1] (setting [3]) and 6 µM in test [2] (setting [4]).
For `CN1CCN(C2CCN(CCCNC(=O)c3nn(C)c4c3COc3cc(F)ccc3-4)CC2)CC1` [Compound 71], the IC50 is 8 µM in test [1] (setting [3]) and 5 µM in test [2] (setting [4]).
Turning to `Cn1nc(C(=O)NCCN2CCN(C3CCCCC3)CC2)c2c1-c1ccccc1SC2` [Compound 11], the IC50 in test [1] (PLC-PRF-5, 72 h) was 35 µM; in test [2] (setting [5]), 62 µM.
As to `CN1CCN(C2CN(CCCNC(=O)c3nn(C)c4c3CSc3ccccc3-4)C2)CC1` [Compound 85], the IC50 was 25 µM in test [1] (setting [3]) and 19 µM in test [2] (setting [4]).
The corresponding values for `CN1CCN(C2CN(CCCNC(=O)c3nn(C)c4c3COc3cc(OC(F)(F)F)ccc3-4)C2)CC1` [Compound 107] are 2 µM and 5 µM.
The corresponding values for `CN1CCN(C2CCN(CCCNC(=O)c3c4c(nn3C)-c3ccc(Cl)cc3OC4)CC2)CC1` [Compound 117] are 6 µM and 0.7 µM.
As for `Cn1nc(C(=O)NCCCN2CCC(N3CCN(C4CC4)CC3)CC2)c2c1-c1ccccc1SC2` [Compound 63], the IC50 in test [1] (setting [3]) turned out to be 12 µM; in test [2] (setting [4]), 10 µM.
The corresponding values for `Cn1nc(C(=O)NCCCN2CC(N3CCOCC3)C2)c2c1-c1ccc(Cl)cc1OC2` [Compound 98] are 18 µM and 29 µM.
Turning to `Cn1nc(C(=O)NCCCN2CCN(C3CCC3)CC2)c2c1-c1ccccc1SC2` [Compound 6], the IC50 in test [1] (PLC-PRF-5, 72 h) was determined as 42 µM; in test [2] (setting [5]), 70 µM.
For the compound `CN1CCN(C2CN(CCCNC(=O)c3n[nH]c4c3COc3cc(C(F)(F)F)c(C#N)cc3-4)C2)CC1` [Compound 131], the values for the IC50 in test [1] (setting [3]) and in test [2] (setting [4]) were 14 µM and 9 µM, respectively.
The corresponding values for `CN1CCN(C2CCN(CCCNC(=O)c3nn(C)c4c3CS(=O)(=O)c3ccccc3-4)CC2)CC1` [Compound 75] are 18 µM and 105 µM.
The corresponding values for `CN1CCN(C2CCN(CCCNC(=O)c3nn(C)c4c3COc3cc(Cl)ccc3-4)CC2)CC1` [Compound 68] are 0.7 µM and 2 µM.
With `Cn1nc(C(=O)NCCCN2CCN(c3cccnc3)CC2)c2c1-c1ccccc1SC2` [Compound 20], the IC50 in test [1] (setting [3]) worked out at 29 µM; in test [2] (setting [4]), 32 µM.
The corresponding values for `Cn1nc(C(=O)NCCCN2CCN(c3ccncc3)CC2)c2c1-c1ccccc1SC2` [Compound 21] are 7 µM and 6 µM.

Values taken from patent US20260115187A1, “TRICYCLIC SKELETON COMPOUND AND USE THEREOF IN PREPARATION OF ANTITUMOR DRUG” (ZHONGSHAN HOSPITAL, FUDAN UNIVERSITY, priority 2024, published 2026).
